Reference: ChEMBL document CHEMBL1201862, “PubChem BioAssay data set” (2004)
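Interpolation was linear, between the two tested concentrations surrounding the appropriate level; five concentrations were tested over 48 hours in 96-well plates. GI50 marks 50% less growth.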 Active and inactive are the calls of the source. Rule as the data show it: active = GI50 up to about 1.1 µM and inactive = higher.

Legend:
Experiment in all cases: NCI tumour cell line growth inhibition, 48 h
786-0 = tested on: 786-0
A498 = tested on: A498
A549 = tested on: A549
ACHN = tested on: ACHN
CAKI-1 = tested on: CAKI-1
CCRF-CEM = tested on: CCRF-CEM
COLO 205 = tested on: COLO 205
DU-145 = tested on: DU-145
EKVX = tested on: EKVX
HCC 2998 = tested on: HCC 2998
HCT-116 = tested on: HCT-116
HCT-15 = tested on: HCT-15
HL-60 = tested on: HL-60
HOP-62 = tested on: HOP-62
HOP-92 = tested on: HOP-92
HT-29 = tested on: HT-29
IGROV-1 = tested on: IGROV-1
K562 = tested on: K562
KM12 = tested on: KM12
LOX IMVI = tested on: LOX IMVI
M14 = tested on: M14
MCF7 = tested on: MCF7
MDA-MB-231 = tested on: MDA-MB-231
MDA-MB-435 = tested on: MDA-MB-435
MDA-N = tested on: MDA-N
MOLT-4 = tested on: MOLT-4
Malme-3M = tested on: Malme-3M
NCI-H226 = tested on: NCI-H226
NCI-H23 = tested on: NCI-H23
NCI-H522 = tested on: NCI-H522
NCI/ADR-RES = tested on: NCI/ADR-RES
OVCAR-3 = tested on: OVCAR-3
OVCAR-4 = tested on: OVCAR-4
OVCAR-5 = tested on: OVCAR-5
OVCAR-8 = tested on: OVCAR-8
PC-3 = tested on: PC-3
RPMI-8226 = tested on: RPMI-8226
RXF 393 = tested on: RXF 393
SF-295 = tested on: SF-295
SF-539 = tested on: SF-539
SK-MEL-28 = tested on: SK-MEL-28
SK-MEL-2 = tested on: SK-MEL-2
SK-MEL-5 = tested on: SK-MEL-5
SK-OV-3 = tested on: SK-OV-3
SN12C = tested on: SN12C
SNB-19 = tested on: SNB-19
SNB-75 = tested on: SNB-75
SW-620 = tested on: SW-620
T47D = tested on: T47D
TK-10 = tested on: TK-10
U-251 = tested on: U-251
UACC-257 = tested on: UACC-257
UACC-62 = tested on: UACC-62
UO-31 = tested on: UO-31
Hs-578T = tested on: Hs-578T
NCI-H460 = tested on: NCI-H460
SF-268 = tested on: SF-268
SR = tested on: SR

Measured: GI50

CCCCCCCCCCCCCCCCCCOP1(=O)OCCO1
39.9 µM: HCT-15
inactive: 786-0 > 100 µM | A498 > 100 µM | A549 79.4 µM | ACHN > 100 µM | CAKI-1 > 100 µM | CCRF-CEM 54 µM | COLO 205 > 100 µM | DU-145 > 100 µM | EKVX > 100 µM | HCC 2998 47.2 µM | HCT-116 49.5 µM | HL-60 23.8 µM | HOP-62 79.1 µM | HOP-92 > 100 µM | HT-29 > 100 µM | IGROV-1 > 100 µM | K562 > 100 µM | KM12 > 100 µM | LOX IMVI 52.1 µM | M14 > 100 µM | MCF7 > 100 µM | MDA-MB-231 44.5 µM | MDA-MB-435 > 100 µM | MDA-N > 100 µM | MOLT-4 40.7 µM | Malme-3M > 100 µM | NCI-H226 > 100 µM | NCI-H23 > 100 µM | NCI-H522 54.6 µM | NCI/ADR-RES > 100 µM | OVCAR-3 > 100 µM | OVCAR-4 > 100 µM | OVCAR-5 74 µM | OVCAR-8 > 100 µM | PC-3 22.8 µM | RPMI-8226 37.4 µM | RXF 393 16.4 µM | SF-295 28.5 µM | SF-539 > 100 µM | SK-MEL-28 > 100 µM | SK-MEL-2 > 100 µM | SK-MEL-5 > 100 µM | SK-OV-3 > 100 µM | SN12C > 100 µM | SNB-19 44.8 µM | SNB-75 > 100 µM | SW-620 > 100 µM | T47D > 100 µM | TK-10 30.4 µM | U-251 27.9 µM | UACC-257 > 100 µM | UACC-62 > 100 µM | UO-31 > 100 µM

O=C(CC(C(=O)c1cccs1)c1ccsc1)c1ccc(Cl)s1 (stereo not given)
inactive: 786-0 > 100 µM | A498 > 100 µM | A549 > 100 µM | ACHN 96.2 µM | CAKI-1 > 100 µM | CCRF-CEM > 100 µM | COLO 205 > 100 µM | DU-145 > 100 µM | EKVX 50.7 µM | HCC 2998 > 100 µM | HCT-116 47.5 µM | HL-60 75.2 µM | HOP-62 > 100 µM | HT-29 75.9 µM | Hs-578T 60.1 µM | IGROV-1 > 100 µM | K562 > 100 µM | KM12 > 100 µM | LOX IMVI > 100 µM | M14 85.5 µM | MCF7 97.1 µM | MDA-MB-231 > 100 µM | MDA-MB-435 85.7 µM | MOLT-4 47.3 µM | Malme-3M > 100 µM | NCI-H226 > 100 µM | NCI-H23 > 100 µM | NCI-H460 > 100 µM | NCI/ADR-RES 12.1 µM | OVCAR-4 > 100 µM | OVCAR-5 31.4 µM | OVCAR-8 > 100 µM | PC-3 > 100 µM | RPMI-8226 55.1 µM | SF-268 > 100 µM | SF-539 > 100 µM | SK-MEL-28 > 100 µM | SK-MEL-2 > 100 µM | SK-MEL-5 70.3 µM | SK-OV-3 > 100 µM | SN12C > 100 µM | SNB-19 72.3 µM | SNB-75 > 100 µM | SR 39.2 µM | SW-620 > 100 µM | T47D 44.3 µM | TK-10 > 100 µM | U-251 > 100 µM | UACC-257 67.9 µM | UACC-62 99.3 µM | UO-31 36.6 µM
73.3 µM: HCT-15

COC(=O)C1=CC(NC(=O)OCc2ccccc2)C(C(=O)c2ccccc2)C[C@@H]1Sc1ccccc1 (stereo not given in full)
inactive: CCRF-CEM 1.47 µM | K562 2.19 µM
active: HL-60 1.09 µM | SR < 0.01 µM
